In PubChem BioAssay (NCI):
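GI50 marks 50% less growth. TGI marks complete inhibition of growth.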

Legend:
Assay in all cases: NCI tumour cell line growth inhibition, 384-well format; in the data active means GI50 below about 0.43 µM; inactive means the rest
[1] = test system: 786-0 renal
[2] = test system: A498 renal
[3] = test system: A549 NSCLC
[4] = test system: ACHN renal
[5] = test system: BT-549 breast
[6] = test system: CAKI-1 renal
[7] = test system: CCRF-CEM leukemia
[8] = test system: COLO 205 colon
[9] = test system: DU-145 prostate
[10] = test system: EKVX NSCLC
[11] = test system: HCC-2998 colon
[12] = test system: HCT-116 colon
[13] = test system: HCT-15 colon
[14] = test system: HL-60(TB) leukemia
[15] = test system: HOP-62 NSCLC
[16] = test system: HOP-92 NSCLC
[17] = test system: HT29 colon
[18] = test system: IGROV1 ovarian
[19] = test system: K-562 leukemia
[20] = test system: KM12 colon
[21] = test system: LOX IMVI melanoma
[22] = test system: M14 melanoma
[23] = test system: MALME-3M melanoma
[24] = test system: MCF7 breast
[25] = test system: MDA-MB-231 breast
[26] = test system: MDA-MB-435 melanoma
[27] = test system: MDA-MB-468 breast
[28] = test system: MOLT-4 leukemia
[29] = test system: NCI-H226 lung
[30] = test system: NCI-H23 lung
[31] = test system: NCI-H322M lung
[32] = test system: NCI-H460 NSCLC
[33] = test system: NCI-H522 lung
[34] = test system: NCI/ADR-RES ovarian
[35] = test system: OVCAR-3 ovarian
[36] = test system: OVCAR-4 ovarian
[37] = test system: OVCAR-5 ovarian
[38] = test system: OVCAR-8 ovarian
[39] = test system: PC-3 prostate
[40] = test system: RPMI-8226 leukemia
[41] = test system: RXF 393 renal
[42] = test system: SF-268 CNS
[43] = test system: SF-295 CNS
[44] = test system: SF-539 CNS
[45] = test system: SK-MEL-2 melanoma
[46] = test system: SK-MEL-28 melanoma
[47] = test system: SK-MEL-5 melanoma
[48] = test system: SK-OV-3 ovarian
[49] = test system: SN12C renal
[50] = test system: SNB-19 CNS
[51] = test system: SNB-75 CNS
[52] = test system: SR leukemia
[53] = test system: SW-620 colon
[54] = test system: T-47D breast
[55] = test system: TK-10 renal
[56] = test system: U251 glioblastoma
[57] = test system: UACC-257 melanoma
[58] = test system: UACC-62 melanoma
[59] = test system: UO-31 renal

C=CC(=O)N1CC[C@@H](Oc2nc(Nc3ccc(N4CCC(N5CCN(C)CC5)CC4)cc3)c(C(N)=O)nc2CC)C1
> 100 µM: TGI [1] | TGI [2] | TGI [3] | TGI [4] | TGI [5] | TGI [6] | TGI [7] | TGI [8] | TGI [9] | TGI [10] | TGI [11] | TGI [12] | TGI [13] | TGI [14] | TGI [15] | TGI [16] | TGI [17] | TGI [18] | TGI [19] | TGI [20] | TGI [21] | TGI [22] | TGI [23] | TGI [24] | TGI [25] | TGI [26] | TGI [27] | TGI [28] | TGI [29] | TGI [30] | TGI [31] | TGI [32] | TGI [33] | TGI [34] | TGI [35] | TGI [36] | TGI [37] | TGI [38] | TGI [39] | TGI [40] | TGI [41] | TGI [42] | TGI [43] | TGI [44] | TGI [45] | TGI [46] | TGI [47] | TGI [48] | TGI [49] | TGI [50] | TGI [51] | TGI [52] | TGI [53] | TGI [54] | TGI [55] | TGI [56] | TGI [57] | TGI [58] | TGI [59]
inactive: GI50 [1] > 100 µM | GI50 [2] > 100 µM | GI50 [3] > 100 µM | GI50 [4] > 100 µM | GI50 [5] > 100 µM | GI50 [6] > 100 µM | GI50 [7] > 100 µM | GI50 [8] > 100 µM | GI50 [9] > 100 µM | GI50 [10] > 100 µM | GI50 [11] > 100 µM | GI50 [12] > 100 µM | GI50 [13] > 100 µM | GI50 [14] > 100 µM | GI50 [15] > 100 µM | GI50 [16] > 100 µM | GI50 [17] > 100 µM | GI50 [18] > 100 µM | GI50 [19] > 88.9 µM | GI50 [20] > 100 µM | GI50 [21] > 100 µM | GI50 [22] > 100 µM | GI50 [23] > 100 µM | GI50 [24] > 100 µM | GI50 [25] > 100 µM | GI50 [26] > 100 µM | GI50 [27] > 100 µM | GI50 [28] > 100 µM | GI50 [29] > 100 µM | GI50 [30] > 100 µM | GI50 [31] > 100 µM | GI50 [32] > 100 µM | GI50 [33] > 100 µM | GI50 [34] > 100 µM | GI50 [35] > 100 µM | GI50 [36] > 100 µM | GI50 [37] > 100 µM | GI50 [38] > 100 µM | GI50 [39] > 100 µM | GI50 [40] > 100 µM | GI50 [41] > 100 µM | GI50 [42] > 100 µM | GI50 [43] > 100 µM | GI50 [44] > 100 µM | GI50 [45] > 100 µM | GI50 [46] > 100 µM | GI50 [47] > 100 µM | GI50 [48] > 100 µM | GI50 [49] > 100 µM | GI50 [50] > 100 µM | GI50 [51] > 100 µM | GI50 [52] > 87.9 µM | GI50 [53] > 100 µM | GI50 [54] > 100 µM | GI50 [55] > 100 µM | GI50 [56] > 100 µM | GI50 [57] > 100 µM | GI50 [58] > 100 µM | GI50 [59] > 100 µM
